Starred links: 1 amine or outer side, 2 acyl side, 3 side chain; linkers in the order of their positions; H or OH if unused. Positions of bridges follow the written chain, without caps; N, C: chain ends. Non-standard residues stand in square brackets, D forms with d. Residues, ends and D or L forms follow the SMILES beside them. ξ: configuration not given here. X1 = O=C([C@@H]1CCN=C2C(N[*:1])=Cc3cc(O)c(O)cc3N21)[*:2]; ξOrn(N(OH)CHO) = NC(CCCN(O)C=O)C(=O)O; Suc = O=C(CCC(=O)[*:2])[*:1]; ξK = NCCCCC(N)C(=O)O; ξS = NC(CO)C(=O)O
How the values were obtained:
Assay type in all cases: cell-based, Pseudomonas aeruginosa
[1] = tested on: PA14 ΔfpvA ΔfpvB ΔfiuA ΔfoxA pHERD20T-fpvB D219A; assay: Growth of quadruple mutant expressing FpvB D219A; conditions: 10:90 + 2% arabinose
Description: (§1) Site-directed mutagenesis was used to confirm the docking predictions and to define the molecular determinants for ligand uptake through FpvB (Fig. 4C). We generated 17 single amino acid substitutions in FpvB and expressed each of them in trans in the quadruple ΔfpvA ΔfpvB ΔfiuA ΔfoxA mutant. Their ability to complement growth of the mutant in the presence of ferrichrome and ferrioxamine B and to restore TS susceptibility was assessed. […] The mutant transporters were tagged with a C-terminal FLAG tag to evaluate expression levels. FLAG-tagged FpvB mutants had WT levels of expression except for Y216T and W347V, which were expressed at 140% and 25% of WT, respectively.
(§2) The ΔfpvA ΔfpvB ΔfiuA ΔfoxA mutant was complemented with WT fpvA, fpvB, fiuA, and foxA in trans as controls (Fig. 4E).
(§3) MIC assays were conducted as previously described ([13], [14]). Overnight cultures were grown in LB from a glycerol stock at 37°C with shaking (200 rpm). Subcultures in 10:90 (1:100 dilution) were cultured for 4 h. Cells were adjusted to an optical density at 600 nm (OD600) of 0.1/500 in 10:90. All compounds were serially diluted 2-fold in dimethyl sulfoxide (DMSO) or H2O at 75× the final concentration. […] The next day, the OD600 was determined with a plate reader (Thermo Scientific) and normalized to percent of growth of the vehicle control after subtracting the OD600 from blank media.

[2] = tested on: PA14 ΔfpvA ΔfpvB ΔfiuA ΔfoxA pHERD20T; assay: Growth of quadruple mutant with empty vector; conditions: 10:90 + 2% arabinose
Description: as §1, §2, §3

[3] = tested on: PA14 ΔfpvA ΔfpvB ΔfiuA ΔfoxA pHERD20T-fpvB Y432A; assay: Growth of quadruple mutant expressing FpvB Y432A; conditions: 10:90 + 2% arabinose
Description: as §1, §2, §3

[4] = tested on: PA14 ΔfpvA ΔfpvB ΔfiuA ΔfoxA quadruple mutant; assay: Growth phenotypes of deletion mutants, quadruple mutant; conditions: 64 μg/mL DSX, 10 μg/mL siderophores, 10:90
Source text: (§4) PA14, ΔfpvA, ΔfpvB, and ΔfpvA ΔfpvB strains treated with TS (A) and DSX (B) in 10:90. Green indicates growth, and white indicates no growth. Growth is expressed as percent of control. The PA14 ΔfpvA ΔfpvB strain complemented with pHERD20T, fpvA, or fpvB treated with TS (C) and DSX (D) in 10:90. […] All experiments are averaged from three independent biological replicates. Blue indicates growth and white indicates no growth. (H) Summary of growth phenotypes of WT PA14 and combinations of single, double, triple, and quadruple deletion mutants in fpvA, fpvB, fiuA, and foxA. […] Green indicates growth, whereas no growth is indicated in white. […] Representative plates are shown.
(§5) If there were no transporters for a particular siderophore, the mutant would fail to grow due to iron restriction.

[5] = tested on: PA14 ΔfpvB ΔfoxA mutants; assay: Growth phenotypes of deletion mutants, ΔfpvB ΔfoxA; conditions: 10 μg/mL ferrioxamine B, 10:90
Source text: as §4, §5

[6] = tested on: PA14 ΔfpvA ΔfpvB ΔfiuA ΔfoxA pHERD20T-fpvB Y216T; assay: Growth of quadruple mutant expressing FpvB Y216T; conditions: 10:90 + 2% arabinose
Description: as §1, §2, §3

[7] = tested on: PA14 ΔfpvA ΔfpvB ΔfiuA ΔfoxA pHERD20T-fpvB W347V; assay: Growth of quadruple mutant expressing FpvB W347V; conditions: FpvB W347V (expressed at 25% of WT), 10:90 + 2% arabinose
Description: as §1, §2, §3

[8] = tested on: PA14; assay: Growth curves with DSX and siderophores, WT PA14; conditions: 20 h
Description: Supplementary file : FIG S1 (A) FpvB is expressed in WT PA14 and the ΔfpvA mutant grown in 10:90. PilF was used as a loading control for outer membrane proteins. (B) FpvA is expressed from WT PA14 grown in 10:90. […] PilF was used as a loading control for outer membrane proteins. (C) Growth curves of PA14 and mutants with DSX and different siderophores in 10:90. PA14, ΔfpvA, ΔfpvB, ΔfpvA ΔfpvB, and ΔpvdA ΔpchA strain growth. Blue indicates control, purple indicates treatment with 64 μg/mL DSX, yellow indicates treatment with 10 μg/mL pyoverdine (PA14), and red indicates treatment with 64 μg/mL DSX and 10 μg/mL pyoverdine (PA14). (D) ΔfpvA, ΔfpvA ΔfpvB, and ΔpvdA ΔpchA strain growth. Blue indicates control, purple indicates treatment with 64 μg/mL DSX, grey indicates treatment with 10 μg/mL ferrichrome, and red indicates treatment with 64 μg/mL DSX and 10 μg/mL ferrichrome. (E) ΔfpvA, ΔfpvA ΔfpvB, and ΔpvdA ΔpchA strain growth. […] Download FIG S1, EPS file, 8.5 MB.
Another explanation for the susceptibility of the ΔfpvA mutant to DSX is that the mutant produces less pyoverdine compared to WT cells due to loss of the signaling cascade that controls siderophore production in response to its binding to FpvA ([25]). To differentiate whether the fpvA mutant was susceptible to DSX because of reduced pyoverdine production or because FpvB was a poor pyoverdine transporter, we treated the WT, ΔfpvA, ΔfpvB, and ΔfpvA ΔfpvB strains with DSX (64 μg/mL) without and with exogenous pyoverdine (10 μg/mL) for 20 h (Fig. 1; see also Fig. S1C). Growth of the ΔfpvA mutant should be restored if there are functional pyoverdine transporters. […] The growth of the ΔfpvA ΔfpvB mutant was inhibited by DSX and pyoverdine, confirming previously published results ([18]).

SMILES | growth in the presence of siderophore [1] | growth in the presence of siderophore [2] | growth in the presence of siderophore [3] | growth in the presence of compound [4] | growth in the presence of compound [5] | growth in the presence of siderophore [6] | growth in the presence of siderophore [7] | growth with siderophore in the presence of DSX ([8]; 64 μg/mL DSX + 10 μg/mL pyoverdine) | growth versus control ([8]; DSX 64 μg/mL or pyoverdine 10 μg/mL alone, 10:90)
CC(=O)N(O)CCCCCNC(=O)CCC(=O)N(O)CCCCCNC(=O)CCC(=O)N(O)CCCCCN [ferrioxamine B] | prevented growth | inhibited | prevented growth | failed to grow | failed to grow | prevented growth | prevented growth | – | –
NCCCCC(NC(=O)C(CO)NC(=O)[C@@H]1CCN=C2C(NC(=O)CCC(=O)O)=Cc3cc(O)c(O)cc3N21)C(=O)NCC(=O)NC(CCCN(O)C=O)C(=O)NC1CCCCNC(=O)C(CO)NC(=O)C(CCCN(O)C=O)NC1=O (stereo partly drawn) [pyoverdine] (Suc-[X1][ξS][ξK]G[ξOrn(N(OH)CHO)][ξK][ξOrn(N(OH)CHO)][ξS]; lactam 6-C) | – | – | – | – | – | – | – | increased growth | increased growth
